ChEMBL document CHEMBL3430912, “GSK Tres Cantos Anti-Kinetoplastid Screening (TCAKS) Data”

Assays:
[1] = GSK_TCAKS: pIC50 HepG2 human cell line viability assay using luminiscence. […] Seeding density was checked to ensure that new mono-layers were not more than 50% confluent at the time of harvesting. Cell suspension was added to 500 mL of the same medium at a final density of 1.2 * 10^5 cells/mL. This cell suspension was dispensed (25 uL, 3000 cells per well) into 384-well clear-bottom plates using a Multidrop Combi dispenser. Prior to addition of the cell suspension, the screening compounds (250 nL) were pre-dispensed into the plates with an Echo liquid handler. Plates were incubated for 48 h at 37C, 5% CO2. After incubation, plates equilibrated at room temperature for 30 min before proceeding to develop the luminescent signal. The signal developer, CellTiter-Glo Reagent, was allowed to equilibrate at room temperature for 30 min and added to the plates (25uL per well) using a Multidrop Combi dispenser. Plates were left for 10 min at room temperature for stabilization and then read using a ViewLux.; format: toxicity, cell-based
Leishmania donovani [2] = experiment: (§1) GSK_TCAKS: pIC50 Leishmania donovani Imaging: Infected Macrophages. Assay plates (384-well) were prepared by adding 250nL of compound to each well. For single shot assay, the final compound concentration was 5 uM. […] Automated image analysis was performed with a script developed on Acapella High Content Imaging and Analysis Software (PerkinElmer). Output: Percent of infected macrophage cells were reported for each well.; format: functional, organism-based, Homo sapiens; conditions: THP-1
Trypanosoma cruzi [3] = experiment: (§2) GSK_TCAKS: pIC50 Trypanosoma cruzi Imaging: Amastigotes/Cell. […] Cells were then washed once with PBS before infection. T. cruzi trypomastigotes, collected at days 5 to 8 after infection from LLC-MK2 parasite infected cultures, were allowed to swim out for 4h at 37C from a centrifuged pellet (2,500 rpm/10 min/room temperature). Trypomastigotes were then collected and counted in a CASY Cell Counter. Trypomastigotes, in supplemented DMEM, were added to H9c2 cultures in a multiplicity of infection of 1 and incubated for 18 h. Cells were washed once with PBS before incubation of the infected H9c2 monolayer with trypsin (Life-Technologies) to detach cells from the flask. Cells were counted in a CASY Cell Counter using a 150 um capillary and their density set at 5 * 10^4 cells per mL in supplemented assay DMEM. Infected H9c2 were dispensed into 384-well poly-lysine coated assay plates at 50uL per well using a Multidrop Combi dispenser. After seeding them, the plates were incubated at 37C, 5% CO2 for 72h. Cultures were then fixed and stained by addition of 50 uL of a solution containing 8% formaldehyde and 4 uM DRAQ5 DNA dye (BioStatus, UK) per well. […] Five images were collected per well for reliable statistical analysis. Automated image analysis was performed with a script developed on Acapella High Content Imaging and Analysis Software (PerkinElmer). Output: number of amastigotes per cell as infection level measurement.; format: functional, organism-based, Rattus norvegicus; conditions: H9c2, 4 h
Leishmania donovani [4] = experiment: GSK_TCAKS: pIC50 Leishmania donovani viability assay using fluorescence intensity. Assay plates (1536-well) were prepared by adding 30nL per well of compound. For single shot assay, the final compound concentration was 5uM. […] Briefly, eGFP LdBOB axenic amastigotes were harvested, fixed and counted in a CASY cell counter (Roche-Applied Science). A final concentration of 1.5 * 10^5 cells per well were prepared in amastigote media containing 500 U/mL penicillin/streptomycin (Invitrogen) and 6uL was dispensed to each experimental well using a Multidrop Combi dispenser (Thermo Scientific). 6uL of assay media was dispensed to control columns used as reference for 100% compound response. Following incubation for 72 h at 37C, 5% CO2, 2 uL of resazurin was added to each well at a final concentration of 0.5 mM in phosphate buffered saline (PBS) with IGEPAL (Sigma-Aldrich), 0.05% (v/v).; format: functional, organism-based
Trypanosoma cruzi [5] = experiment: GSK_TCAKS: pIC50 Trypanosoma cruzi viability assay using beta-GAL activity. This assay was run at single shot at 5uM compound concentration per well. The biological reagents consisted of NIH-3T3 host cells and trypomastigotes parasitic cells; both cell types were set to a 3.3 * 10^5 cells/mL dilution in assay DMEM by means of a CASY cell counter device using a 60um capillary. 6 uL of the mixture were dispensed per well (about 1 * 10^3 host-cells and 1 * 10^3 parasites) with a Multidrop Combi dispenser. […] In all wells, the percentage of DMSO never exceeded 0.5%. Plates incubated for four days at 37C, 5% CO2. The substrate used for the assay fluorescence intensity (FLINT) readout was resorufin-beta-D-galactopiranoside (Sigma-Aldrich) at 5uM per well. It was diluted in PBS supplemented with the soft detergent Igepal (Fluka).; format: functional, organism-based, Mus musculus; conditions: Tulahuen, NIH3T3
[6] = test system: Trypanosoma brucei brucei; experiment: GSK_TCAKS: pIC50 Trypanosoma brucei viability assay using luminiscence. Assay plates (1536-well) were prepared. T. brucei cultures were harvested and counted in a CASY cell counter. A parasite suspension was prepared at a final concentration of 5 * 10^4 cells/mL in complete HMI9 medium and 6uL was dispensed to all wells containing compounds using a Multidrop Combi dispenser. 6uL of HMI9 media with 0.4% DMSO were dispensed to control columns. Plates were incubated for 24 h at 37C, 5% CO2 then tempered for 10 min at room temperature. ATP content was quantified by adding 4 uL of CellTiter-Glo Reagent (Promega) according to the manufacturer's instructions. Luminescence was measured using a ViewLux.; format: functional, organism-based; conditions: Lister 427, CASY
Trypanosoma cruzi [7] = experiment: as §2, with “H2C9” for “Trypanosoma cruzi”, “H9c2 Host Cardiomyocytes.” for “Amastigotes/Cell.”, “Number” for “number”, “H9c2 Host Cardiomyocytes nuclei to determine drug-related cytotoxicity.” for “amastigotes per cell as infection level measurement.”; format: functional, organism-based, Rattus norvegicus; conditions: H9c2, 4 h
Leishmania donovani [8] = experiment: as §1, with “THP-1 Host” for “Infected”, “THP-1 cell count” for “Percent of infected macrophage cells”; format: functional, organism-based, Homo sapiens
Trypanosoma cruzi [9] = experiment: GSK_TCAKS: pIC50 Trypanosoma cruzi Imaging: Infected Cells. […] Cells were then washed once with PBS before infection. T. cruzi trypomastigotes, collected at days 5 to 8 after infection from LLC-MK2 parasite infected cultures, were allowed to swim out for 4h at 37C from a centrifuged pellet (2,500 rpm/10 min/room temperature). Trypomastigotes were then collected and counted in a CASY Cell Counter. Trypomastigotes, in supplemented DMEM, were added to H9c2 cultures in a multiplicity of infection of 1 and incubated for 18 h. Cells were washed once with PBS before incubation of the infected H9c2 monolayer with trypsin (Life-Technologies) to detach cells from the flask. Cells were counted in a CASY Cell Counter using a 150 um capillary and their density set at 5 * 10^4 cells per mL in supplemented assay DMEM. Infected H9c2 were dispensed into 384-well poly-lysine coated assay plates at 50uL per well using a Multidrop Combi dispenser. After seeding them, the plates were incubated at 37C, 5% CO2 for 72h. Cultures were then fixed and stained by addition of 50 uL of a solution containing 8% formaldehyde and 4 uM DRAQ5 DNA dye (BioStatus, UK) per well. […] Five images were collected per well for reliable statistical analysis. Automated image analysis was performed with a script developed on Acapella High Content Imaging and Analysis Software (PerkinElmer). Output: percentage of infected cells per well as a second infection marker.; format: functional, organism-based, Rattus norvegicus; conditions: H9c2, 4 h
[10] = target: Sterol 14-alpha demethylase (Trypanosoma cruzi (strain CL Brener), UniProt Q7Z1V1); experiment: GSK_TCAKS: pIC50 CYP51 from Trypanosoma cruzi.; format: functional
[11] = test system: Trypanosoma brucei brucei; experiment: GSK_TCAKS: pIC50 Trypanosoma brucei viability assay using fluorescence intensity. Assay plates (1536-well) were prepared by dispensing 25nL of compound solution per well using an Echo acoustic dispenser (Labcyte).; format: functional, organism-based; conditions: Lister 427, 2 h
Leishmania donovani [12] = experiment: as §1, with “Amastigotes/Macrophages.” for “Infected Macrophages.”, “Average number” for “Percent”, “amastigotes per” for “infected”, “cell” for “cells”; format: functional, organism-based, Homo sapiens; conditions: THP-1
NIH3T3 = experiment: GSK_TCAKS: pIC50 NIH 3T3 cell line viability assay using luminiscence. Tissue culture surface treated assay plates (1536-well) were used. […] The 100% cells survival control was determined exposing the host-cells to a 0.5% DMSO concentration, whereas the 100% toxicity control was achieved by seeding the cells in presence of Amphotericin B at 50uM. Plates were incubated for four days at 37C, 5% CO2. The assay readout was developed by addition of 5uL of CellTiter-Glo Reagent following the manufacturer's instructions. Luminiscence was measured using a ViewLux.; format: functional, cell-based; conditions: Mus musculus, NIH3T3, 96 h

Sequence of Sterol 14-alpha demethylase (Q7Z1V1 whole entry): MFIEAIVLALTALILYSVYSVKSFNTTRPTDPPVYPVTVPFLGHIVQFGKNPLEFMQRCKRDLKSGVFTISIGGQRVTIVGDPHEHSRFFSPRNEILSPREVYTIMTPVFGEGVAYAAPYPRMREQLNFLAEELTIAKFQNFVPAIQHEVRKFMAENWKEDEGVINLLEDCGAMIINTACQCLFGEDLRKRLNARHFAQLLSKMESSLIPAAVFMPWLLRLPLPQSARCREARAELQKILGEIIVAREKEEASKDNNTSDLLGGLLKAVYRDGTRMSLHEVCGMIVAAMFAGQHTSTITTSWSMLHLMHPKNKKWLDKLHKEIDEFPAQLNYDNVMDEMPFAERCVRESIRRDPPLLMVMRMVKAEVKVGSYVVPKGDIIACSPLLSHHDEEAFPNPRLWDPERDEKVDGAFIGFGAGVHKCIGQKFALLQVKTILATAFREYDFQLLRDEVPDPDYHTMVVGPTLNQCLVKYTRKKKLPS

SMILES | IC50 at 48 h [1] [µM] | IC50 (Leishmania donovani [2]) [µM] | IC50 (Trypanosoma cruzi [3]) [µM] | IC50 (Leishmania donovani [4]) [µM] | IC50 (Trypanosoma cruzi [5]) [µM] | IC50 [6] [µM] | IC50 (Trypanosoma cruzi [7]) [µM] | IC50 (Leishmania donovani [8]) [µM] | IC50 (Trypanosoma cruzi [9]) [µM] | IC50 [10] [µM] | IC50 [11] [µM] | IC50 (Leishmania donovani [12]) [µM] | IC50 (NIH3T3) [µM]
CNc1cc(C)nc(C2CN(C(=O)c3n[nH]c4ccccc34)CCO2)c1 (centres undefined) | > 100 | > 50.1 | 0.794 | > 50.1 | 1.26 | > 39.8 | > 50.1 | > 50.1 | 2.51 | > 100 | 20 | > 50.1 | > 50.1
Cc1ccccc1OCC(=O)N1CCCN(c2cccnn2)CC1 | > 100 | > 50.1 | 0.501 | 12.6 | 0.316 | > 39.8 | > 50.1 | > 50.1 | 0.631 | 0.0794 | > 39.8 | > 50.1 | 50.1
Cc1ccc(S(=O)(=O)Nc2ccc(CN3CCN(C(=O)c4cccc(C#N)c4)CC3)cc2)cc1 | > 100 | > 50.1 | 0.398 | 10 | 0.501 | 0.316 | > 50.1 | > 50.1 | 0.501 | > 100 | 0.158 | 25.1 | > 50.1
Cc1nccn1C1CCCN(C(=O)c2cc3c(F)cccc3s2)C1 (centres undefined) | > 100 | > 50.1 | 0.794 | 5.01 | 0.631 | > 39.8 | > 50.1 | > 50.1 | 1 | 50.1 | > 39.8 | > 50.1 | 20
Cc1cc2cncn2c(C2CCCCN2C(=O)c2cccs2)n1 (centres undefined) | > 100 | > 50.1 | 0.0631 | 0.398 | 0.0251 | > 39.8 | > 50.1 | > 50.1 | 0.0631 | 0.1 | > 39.8 | > 50.1 | > 50.1
CC(Cn1ccnc1)NC(=O)C1CC1c1cccc(Cl)c1Cl (centres undefined) | > 100 | > 50.1 | 0.2 | 15.8 | 0.141 | > 39.8 | > 50.1 | > 50.1 | 0.251 | 0.126 | > 39.8 | 10 | > 50.1
COc1ccc2ncc(F)c(NC(=O)[C@]3(O)CC[C@@H](NCc4ccc5c(c4)OCCO5)CC3)c2n1 | 50.1 | 31.6 | 0.158 | 39.8 | 0.158 | 1.58 | 31.6 | 20 | 0.126 | 63.1 | 0.794 | 15.8 | 7.94
O=C(C1CCCCC1)N1CCN(c2nnc(-c3ccccc3)c3ccccc23)CC1 | > 100 | > 50.1 | 0.398 | > 50.1 | 1 | > 39.8 | > 50.1 | 50.1 | 0.631 | > 100 | 10 | 20 | > 50.1
